From article PMC11530593, “Structural mechanism of human HCN1 hyperpolarization-activated channel inhibition by ivabradine” (The Journal of Biological Chemistry, 2024)
Substitutions are numbered along the chain they refer to.

What was measured:
HCN1 mutant F143A = biological target: T1, HCN1 mutant F143A (Homo sapiens, UniProt O60741, F143A); assay: Whole-cell patch-clamp, Ih inhibition, HCN1 mutant; type: cell-based
T1 construct: Full-length WT or mutant human HCN1 were cloned into the pcDNA3.1 vector; expressed in transfected cells; host or cells: HeLa cells, pcDNA3.1 vector, transient lipofection
T1 sequence (O60741 1-890 F143A): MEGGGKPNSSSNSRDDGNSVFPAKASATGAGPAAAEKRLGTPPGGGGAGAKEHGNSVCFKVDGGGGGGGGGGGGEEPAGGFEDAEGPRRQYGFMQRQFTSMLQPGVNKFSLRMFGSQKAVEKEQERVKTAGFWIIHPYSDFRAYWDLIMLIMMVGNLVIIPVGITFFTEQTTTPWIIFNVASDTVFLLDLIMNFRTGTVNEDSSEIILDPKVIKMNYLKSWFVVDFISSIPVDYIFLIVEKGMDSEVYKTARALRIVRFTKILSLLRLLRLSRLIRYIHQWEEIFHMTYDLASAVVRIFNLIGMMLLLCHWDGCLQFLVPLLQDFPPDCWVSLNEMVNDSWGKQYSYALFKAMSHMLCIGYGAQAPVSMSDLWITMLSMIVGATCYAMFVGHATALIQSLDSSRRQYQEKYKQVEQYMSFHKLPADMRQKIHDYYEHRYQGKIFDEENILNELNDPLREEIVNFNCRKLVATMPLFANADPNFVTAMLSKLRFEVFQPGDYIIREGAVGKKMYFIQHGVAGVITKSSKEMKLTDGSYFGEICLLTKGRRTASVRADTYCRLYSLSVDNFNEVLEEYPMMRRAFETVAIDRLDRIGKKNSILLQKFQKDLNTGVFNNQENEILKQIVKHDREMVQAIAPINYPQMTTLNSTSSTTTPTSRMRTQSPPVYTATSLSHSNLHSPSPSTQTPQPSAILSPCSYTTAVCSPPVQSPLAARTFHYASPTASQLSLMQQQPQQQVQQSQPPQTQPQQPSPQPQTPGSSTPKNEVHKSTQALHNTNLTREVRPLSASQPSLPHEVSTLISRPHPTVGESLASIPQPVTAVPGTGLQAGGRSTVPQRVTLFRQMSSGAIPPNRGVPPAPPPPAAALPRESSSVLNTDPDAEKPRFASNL
Method: (§1) To elucidate the contribution of these residues to the inhibitory effect of ivabradine, we introduced mutations in ivabradine-interacting residues, converting them into alanines (Fig. 2F).
(§2) Full-length WT or mutant human HCN1 were cloned into the pcDNA3.1 vector for electrophysiological experiments. HeLa cells (from Thermo Fisher Scientific) cultured in Dulbecco's modified Eagle's medium (from Solarbio Life Science) + 10% fetal bovine serum (from ExCell Bio) at 37 °C were transiently transfected using lipofection, and whole-cell patch-clamp recordings were obtained using the Axon 200B amplifier (Molecular Devices) and clampex software (https://www.moleculardevices.com/products/axon-patch-clamp-system/acquisition-and-analysis-software/pclamp-software-suite), 36 to 48 h posttransfection. The extracellular solution contained 110 mM NaCl, 0.5 mM MgCl2, 1.8 mM CaCl2, 5 mM Hepes, 30 mM KCl, and pH was adjusted to 7.4 with NaOH, while the pipette solution contained 130 mM KCl, 10 mM NaCl, 0.5 mM MgCl2, 1 mM EGTA, 5 mM Hepes, and pH was adjusted to 7.4 with KOH. The recordings were performed at room temperature, voltage-clamp mode, and filtered at 1 kHz. The sampling frequency was 10 kHz, and the series resistance was limited to 5 MΩ. To elicit channel currents, step pulses of 3 s duration ranging from −180 mV to −30 mV were applied, followed by a step to −180 mV lasting 1.25 s. The tail currents evoked by the second step were used to determine the voltage-dependent activation curves and calculate the midpoint of activation potential (V1/2). The half maximal inhibitory concentration (IC50) of drugs was determined by recording currents at a pulse of −140 mV and analyzing current amplitudes at varying drug concentrations. The IC50 value was calculated using the Hill equation.

HCN1 mutant Y289A = biological target: T2, HCN1 mutant Y289A (Homo sapiens, UniProt O60741, Y289A); assay: Whole-cell patch-clamp, Ih inhibition, HCN1 mutant; type: cell-based; conditions: electrophysiological recordings, read-out: IC50 (Fig. 2F)
T2 construct: Full-length WT or mutant human HCN1 were cloned into the pcDNA3.1 vector; expressed in transfected cells; host or cells: HeLa cells, pcDNA3.1 vector, transient lipofection
T2 sequence (O60741 1-890 Y289A): T1 sequence (O60741 1-890 F143A) with A143F, Y289A
Method: as §1, §2

IC50 (HCN1 mutant F143A; F143A mutant, electrophysiological recordings, read-out: IC50 (Fig. 2F)): 32.9 µM
change in potency by mutation (HCN1 mutant F143A; F143A versus WT): dramatic decrease
IC50 (HCN1 mutant Y289A): 11.8 µM
SMILES: COc1cc2c(cc1OC)CC(=O)N(CCCN(C)C[C@H]1Cc3cc(OC)c(OC)cc31)CC2 [ivabradine]
